# Reference: patent US12397023B2, “Composition comprising Lactococcus chungangensis for prevention or treatment of fatty liver or metabolic syndrome” (CHUNG ANG UNIVERSITY INDUSTRY ACADEMIC COOPERATION …, priority 2018, dated 2025)
# System: HFD-induced obese mice
# Experiment: Serum lipids (TC, TG, HDL, LDL)
# Assay type: in vivo, C57BL/6J mouse
# Conditions: 12 weeks, mean ± SEM
# Method: During the experimental period, the experimental group had free access to diet and drinking water. […] The same volume of PBS was administered to the negative control group and the positive control group. […] All mice were gavaged once a week for 12 weeks.
# Blood samples were collected after 12 weeks of treatment from two mice from each experimental group in centrifuge tubes containing EDTA. Blood was drawn by puncturing the orbit through the orbit and within the orbit. Samples were centrifuged at 1200× for 15 minutes and incubated at 4° C. for 10 minutes. Serum aspartate aminotransferase (AST), alanine aminotransferase (ALT), TC, high-density lipoprotein (HDL), low-density lipoprotein (LDL) and TG were analyzed in the serum supernatant using an appropriate assay kit (Green Cross Biopharmaceutical, Yongin, Korea). The same samples were also used for hormone measurements.
structure (smiles),measurement,value
CCC(C)(C)C(=O)O[C@H]1C[C@@H](C)C=C2C=C[C@H](C)[C@H](CC[C@@H]3C[C@@H](O)CC(=O)O3)[C@H]21 [Simvastatin],TC,51.50 ± 1.50 mg/dL
same,TG,30.00 ± 5.00 mg/dL
